From PubChem BioAssay AID1918946 (Molecular Pharmacology Branch, DTP, NCI, 2023)

Test system: 885512-296-R-J2-PDC complex spheroid viability
Test: Anticancer human tumor 885512-296-R-J2-PDC patient-derived breast carcinoma cell line growth inhibition
Conditions: for IC50: curve of first compound; for viability, T/C: stronger effect = lower value
How it was run: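 Drug combinations with the LSD1 inhibitor iadademstat tested on tumor cells co-cultured as spheroids with endothelial cells and mesenchymal stem cells. Concentrations descended in half-log increments from clinical Cmax or 10 microM.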

[1] = second compound 0.1 µM, first compound 0.00316 µM
[2] = second compound 0.1 µM, first compound 0.01 µM
[3] = second compound 0.1 µM, first compound 0.0316 µM
[4] = second compound 0.1 µM, first compound 0.1 µM
[5] = second compound 0.1 µM, first compound 0.316 µM
[6] = second compound 0.1 µM, first compound 1 µM
[7] = second compound 0.316 µM, first compound 0.00316 µM
[8] = second compound 0.316 µM, first compound 0.01 µM
[9] = second compound 0.316 µM, first compound 0.0316 µM
[10] = second compound 0.316 µM, first compound 0.1 µM
[11] = second compound 0.316 µM, first compound 0.316 µM
[12] = second compound 0.316 µM, first compound 1 µM
[13] = second compound 1 µM, first compound 0.00316 µM
[14] = second compound 1 µM, first compound 0.01 µM
[15] = second compound 1 µM, first compound 0.0316 µM
[16] = second compound 1 µM, first compound 0.1 µM
[17] = second compound 1 µM, first compound 0.316 µM
[18] = second compound 1 µM, first compound 1 µM
[19] = second compound 3.16 µM, first compound 0.00316 µM
[20] = second compound 3.16 µM, first compound 0.01 µM
[21] = second compound 3.16 µM, first compound 0.0316 µM
[22] = second compound 3.16 µM, first compound 0.1 µM
[23] = second compound 3.16 µM, first compound 0.316 µM
[24] = second compound 3.16 µM, first compound 1 µM
[25] = second compound 10 µM, first compound 0.00316 µM
[26] = second compound 10 µM, first compound 0.01 µM
[27] = second compound 10 µM, first compound 0.0316 µM
[28] = second compound 10 µM, first compound 0.1 µM
[29] = second compound 10 µM, first compound 0.316 µM
[30] = second compound 10 µM, first compound 1 µM
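Further: spheroids exposed to agents for 7 days before viability read.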

O=C(C=Cn1cnc(-c2cc(C(F)(F)F)cc(C(F)(F)F)c2)n1)NNc1cnccn1 + NC1CC1c1ccc(-c2cccc(O)c2)cc1
IC50 (second compound 0.1 µM): < 3.16 nM
IC50 (second compound 0.316 µM): < 3.16 nM
IC50 (second compound 1 µM): < 3.16 nM
IC50 (second compound 3.16 µM): < 3.16 nM
IC50 (second compound 10 µM): < 3.16 nM
viability, T/C [1]: 22.8%
viability, T/C [2]: 11.1%
viability, T/C [3]: 1.78%
viability, T/C [4]: 0.68%
viability, T/C [5]: 0.55%
viability, T/C [6]: 0.47%
viability, T/C [7]: 17.4%
viability, T/C [8]: 11.5%
viability, T/C [9]: 1.98%
viability, T/C [10]: 0.67%
viability, T/C [11]: 0.5%
viability, T/C [12]: 0.4%
viability, T/C [13]: 19%
viability, T/C [14]: 10.3%
viability, T/C [15]: 2.51%
viability, T/C [16]: 0.72%
viability, T/C [17]: 0.52%
viability, T/C [18]: 0.58%
viability, T/C [19]: 13.6%
viability, T/C [20]: 10.3%
viability, T/C [21]: 2.71%
viability, T/C [22]: 0.8%
viability, T/C [23]: 0.52%
viability, T/C [24]: 0.63%
viability, T/C [25]: 14.8%
viability, T/C [26]: 8.29%
viability, T/C [27]: 2.21%
viability, T/C [28]: 0.82%
viability, T/C [29]: 0.71%
viability, T/C [30]: 0.78%

COc1cc(C2c3cc4c(cc3C(OC3OC5COC(C)OC5C(O)C3O)C3COC(=O)C23)OCO4)cc(OC)c1O (stereo not given) + NC1CCC(NC2CC2c2ccccc2)CC1
IC50 (second compound 0.1 µM): 67.8 nM
IC50 (second compound 0.316 µM): 60.8 nM
IC50 (second compound 1 µM): 66.8 nM
IC50 (second compound 3.16 µM): 77.6 nM
IC50 (second compound 10 µM): 52.8 nM
viability, T/C (second compound 0.1 µM, first compound 0.00949 µM): 118%
viability, T/C (second compound 0.1 µM, first compound 0.03 µM): 95.8%
viability, T/C (second compound 0.1 µM, first compound 0.0949 µM): 31.2%
viability, T/C (second compound 0.1 µM, first compound 0.3 µM): 11.3%
viability, T/C (second compound 0.1 µM, first compound 0.949 µM): 10.2%
viability, T/C (second compound 0.1 µM, first compound 3 µM): 11.3%
viability, T/C (second compound 0.316 µM, first compound 0.00949 µM): 108%
viability, T/C (second compound 0.316 µM, first compound 0.03 µM): 90.7%
viability, T/C (second compound 0.316 µM, first compound 0.0949 µM): 24.3%
viability, T/C (second compound 0.316 µM, first compound 0.3 µM): 11.8%
viability, T/C (second compound 0.316 µM, first compound 0.949 µM): 9.27%
viability, T/C (second compound 0.316 µM, first compound 3 µM): 8.79%
viability, T/C (second compound 1 µM, first compound 0.00949 µM): 104%
viability, T/C (second compound 1 µM, first compound 0.03 µM): 86.4%
viability, T/C (second compound 1 µM, first compound 0.0949 µM): 33.4%
viability, T/C (second compound 1 µM, first compound 0.3 µM): 13%
viability, T/C (second compound 1 µM, first compound 0.949 µM): 6.51%
viability, T/C (second compound 1 µM, first compound 3 µM): 4.74%
viability, T/C (second compound 3.16 µM, first compound 0.00949 µM): 98.9%
viability, T/C (second compound 3.16 µM, first compound 0.03 µM): 105%
viability, T/C (second compound 3.16 µM, first compound 0.0949 µM): 39%
viability, T/C (second compound 3.16 µM, first compound 0.3 µM): 10.7%
viability, T/C (second compound 3.16 µM, first compound 0.949 µM): 6.97%
viability, T/C (second compound 3.16 µM, first compound 3 µM): 9.62%
viability, T/C (second compound 10 µM, first compound 0.00949 µM): 90.8%
viability, T/C (second compound 10 µM, first compound 0.03 µM): 64.6%
viability, T/C (second compound 10 µM, first compound 0.0949 µM): 35%
viability, T/C (second compound 10 µM, first compound 0.3 µM): 14.2%
viability, T/C (second compound 10 µM, first compound 0.949 µM): 5.81%
viability, T/C (second compound 10 µM, first compound 3 µM): 4.68%

Nc1ncn(C2CC(O)C(CO)O2)c(=O)n1 (stereo not given) + NC1CCC(NC2CC2c2ccccc2)CC1
IC50 (second compound 0.1 µM): 30.8 nM
IC50 (second compound 0.316 µM): 29.9 nM
IC50 (second compound 1 µM): 28.3 nM
IC50 (second compound 3.16 µM): 27.1 nM
IC50 (second compound 10 µM): 19.8 nM
viability, T/C [1]: 91.3%
viability, T/C [2]: 91.5%
viability, T/C [3]: 46.9%
viability, T/C [4]: 25.2%
viability, T/C [5]: 12.7%
viability, T/C [6]: 13.6%
viability, T/C [7]: 105%
viability, T/C [8]: 75.5%
viability, T/C [9]: 53%
viability, T/C [10]: 24.6%
viability, T/C [11]: 14.8%
viability, T/C [12]: 15.4%
viability, T/C [13]: 101%
viability, T/C [14]: 74.1%
viability, T/C [15]: 47%
viability, T/C [16]: 30.8%
viability, T/C [17]: 14.5%
viability, T/C [18]: 16.1%
viability, T/C [19]: 80.1%
viability, T/C [20]: 72.6%
viability, T/C [21]: 44.4%
viability, T/C [22]: 28.9%
viability, T/C [23]: 19.8%
viability, T/C [24]: 16.1%
viability, T/C [25]: 74.8%
viability, T/C [26]: 59%
viability, T/C [27]: 45.4%
viability, T/C [28]: 21.4%
viability, T/C [29]: 15.6%
viability, T/C [30]: 11.5%
